The star is where a group is joined. Palmitoyl = CCCCCCCCCCCCCCCC(=O)*
Experiments:
Collagen 1 (PIP) = test: ELISA assay of collagen I (via PIP) in culture supernatant of human dermal fibroblasts; assay type: cell-based; details: 5 ppm peptide; normal human dermal fibroblasts; 72 hours; ELISA weighted to viable cells
Method: (§1) An ELISA is an immunological assay commonly used to measure presence and abundance of a specific proteins (antibodies, antigens, proteins and glycoproteins) in biological samples. In this case ELISAs are being used to quantify the expression of dermal extracellular proteins collagen-1, decorin, and fibronectin. The quantity of collagen I is evaluated via the quantity of PIP (“carboxU-terminal pro-peptide of procollagen type I”) which is a peptide fragment resulting from the enzymatic degradation of procollagen present outside the fibroblast in the culture supernatant medium. […]
(§2) Normal human dermal fibroblasts cells (HDFs) were cultured in contact with the tetrapeptides of the present invention, or composition without the peptide (negative control), for 72 hours. Thereafter the cultured supernatants were removed, and the quantity of dermal extracellular proteins determined using an ELISA assay for the protein of interest. For the ELISA quantification, cell viability was calculated using Hoechst staining allowing the quantity of dermal proteins to be weighted to the number of viable cells.
The quantity of collagen I is evaluated using the quantity of PIP (“carboxU-terminal pro-peptide of procollagen type I”) which is a peptide fragment resulting from the enzymatic degradation of procollagen present outside the fibroblast in the culture supernatant medium. […]

CDH2 = test: LC-MS/MS relative protein abundance in secretome/matrisome of HDFs: CDH2; assay type: cell-based, human; details: 8 ppm peptide, seven-day culture
Method: (§3) Following incubation with the peptides, liquid chromatography tandem mass spectrometry (LC-MS/MS) was used to quantify the relative abundance differences between proteins identified in the secretome/matrisome, versus an untreated control. HDFs from a donor, plated at 50,000 cells per well, were cultured with either peptide dissolved in cell culture media to achieve a final concentration of 8 ppm or with media without any peptide as a negative control. Treated and control cells were tested in triplicate. The cells were cultured as normal for five days in serum-supplemented media and then for a further two days in serum-free media (seven-day culture in total). The cell media containing the secretome (the proteins secreted by the cell) and the ECM, decellularized by incubation with EDTA (ethylenediaminetetraacetic acid), containing the matrisome (the collection of ECM associated proteins) were collected. The combined secretome and the matrisome compartments were subsequently analysed by LC-MS/MS using the following protocol.
(§4) Proteins were denatured (in urea), reduced (in dithiothreitol) and mechanically disassociated (using ultrasonication) prior to overnight digestion with trypsin (SMART Digest™ trypsin kit; Thermo Fisher). After digestion, samples were cleaned of contaminants up by removal of organic molecules and surfactants using biphasic extraction and desalted using OLIGO™ R3 Reversed Phase Resin (Thermo Fisher).
(§5) Samples (200 ng) were ran on an UltiMate® 3000 Rapid Separation Liquid Chromatographer coupled to a Q Exactive™ Hybrid Quadrupole-Orbitrap™ Mass Spectrometer for 90-minutes per sample run. Spectral data was searched again the Uniprot Human proteome database using Mascot v2.5.1. Subsequent protein identification and data-dependent quantification was performed using Progenesis QI. Normalised protein abundances were compared between each peptide treatment and control. Statistical analysis was performed within Progenesis QI using a between sample ANOVA.
(§6) The mass spectrometry data for each peptide is shown below in table 3 and FIG. 1. […] These protein families were as follows: proteoglycans, UV DNA repair proteins, basement membrane protein and cell-adhesion proteins; functional protein families with a potentially important role in dermal repair and remodelling.
(§7) The results of the above mass spectrometry experiments wherein a range of tetrapeptides are applied to HDFs to elicit a response in the expression of dermal extracellular proteins are provided in table 3 below. The protein family which the protein belongs to is also shown. Mass spectrometry results using peptide sequences, according to the invention (column 1) and not according to the present invention (columns 2, 3 and 4), are also presented within the table for comparison.

CSPG2 = test: LC-MS/MS relative protein abundance in secretome/matrisome of HDFs: CSPG2; assay type: cell-based, human; details: 8 ppm peptide, seven-day culture
Method: as §3, §4, §5, §6, §7

[1] = tested on: proteoglycans, UV DNA repair proteins, basement membrane protein and cell-adhesion proteins; test: LC-MS/MS protein families overview (bubble plot FIG. 1) in HDFs; assay type: cell-based, human; details: 8 ppm peptide, result in words
Method: as §3, with “protocol. […]” for “protocol.”
Samples (200 ng) were ran on an UltiMate® 3000 Rapid Separation Liquid Chromatographer coupled to a Q Exactive™ Hybrid Quadrupole-Orbitrap™ Mass Spectrometer for 90-minutes per sample run. […] Subsequent protein identification and data-dependent quantification was performed using Progenesis QI. […]

Fibrillin-1 = test: Immunofluorescence of Fibrillin-1 fibre abundance in primary human dermal fibroblasts; assay type: cell-based; details: HDF cells, 5 days
Method: Immunofluorescence relies on the use of antibodies to label a specific protein with a fluorescent dye such as fluorescein isothiocyanate (FITC). In the following experiments, indirect immunofluorescence is used where a primary antibody first recognises and attaches to the specific protein, in this case fibrillin-1, and then a secondary antibody conjugated with FITC directed against the primary antibody is used for detection.
For all experiments, the control liquid stock was prepared by dissolving the powdered peptides in DMSO (Dimethyl Sulfoxide solvent). Peptide powders were dissolved in DMSO at recommended part per million concentrations and then further diluted in the cell culture medium and combined to obtain the desired peptide ratio.
Fibrillin-1 expression was determined using immunofluorescence. Primary human dermal fibroblast (I-IDF) cells were purchased from Promo Cell and came from a donor. […]
The antibody binding to Fibrillin-1 fibres was visualised using a Nikon Eclipse 100 microscope fluorescence setting using an excitation lens for fluorescein isothiocyanate (FITC). […] ImageJ software was used to quantify the Fibrillin-1 fibre abundance and coverage in each image using a threshold of 235 measuring the fibre density.
Results are expressed as a percentage increase in fibrillin abundance compared to untreated control. […]

RAD23A = test: LC-MS/MS relative protein abundance in secretome/matrisome of HDFs: RAD23A; assay type: cell-based, human; details: 8 ppm peptide, seven-day culture
Method: as §3, §4, §5, §6, §7

Fibronectin = test: ELISA assay of fibronectin in culture supernatant of human dermal fibroblasts; assay type: cell-based; details: 5 ppm peptide; normal human dermal fibroblasts; 72 hours; ELISA weighted to viable cells
Method: as §1, §2
(§8) The effect of the QTAV tetrapeptide on ECM protein expression by fibroblasts as measured by ELISA (column 1) versus tetrapeptide not conforming to the QTAV structure (column 2) are presented in the table below (table 1). Results are expressed as % increase versus the negative control.

LAMB2 = test: LC-MS/MS relative protein abundance in secretome/matrisome of HDFs: LAMB2; assay type: cell-based, human; details: 8 ppm peptide, seven-day culture
Method: as §3, §4, §5, §6, §7

LGALS3 = test: LC-MS/MS relative protein abundance in secretome/matrisome of HDFs: LGALS3; assay type: cell-based, human; details: 8 ppm peptide, seven-day culture
Method: as §3, §4, §5, §6, §7

Decorin = test: ELISA assay of decorin in culture supernatant of human dermal fibroblasts; assay type: cell-based; details: 5 ppm peptide; normal human dermal fibroblasts; 72 hours; ELISA weighted to viable cells
Method: as §1, §2, §8

NID1 = test: LC-MS/MS relative protein abundance in secretome/matrisome of HDFs: NID1; assay type: cell-based, human; details: 8 ppm peptide, seven-day culture
Method: as §3, §4, §5, §6, §7

Row | Substance | Collagen 1 (PIP), % increase versus the negative control (Collagen 1 (PIP)) | CDH2 (Cell adhesion) protein enhanced versus untreated control (CDH2) | CSPG2 (Proteoglycans) protein enhanced versus untreated control (CSPG2) | enhancement of protein families (proteoglycans, UV DNA repair proteins, basement membrane proteins, cell adhesion proteins) ([1]; FIG. 1 bubble plot) | protein synthesis in comparison to the control ([1]; HDFs, LC-MS/MS) | Fibrillin-1, percentage increase in fibrillin abundance compared to untreated control (Fibrillin-1; 12.5 ppm peptide) | RAD23A (UV DNA repair) protein enhanced versus untreated control (RAD23A) | Fibronectin, % increase versus the negative control (Fibronectin) | LAMB2 (Basement membrane) protein enhanced versus untreated control (LAMB2) | LGALS3 (Cell adhesion) protein enhanced versus untreated control (LGALS3) | Decorin, % increase versus the negative control (Decorin) | NID1 (Basement membrane) protein enhanced versus untreated control (NID1) | Fibrillin-1, percentage increase in fibrillin abundance compared to untreated control (Fibrillin-1; 10 ppm peptide)
1 | Pal-QTAV-OH (Palmitoyl-QTAV-OH; SMILES CCCCCCCCCCCCCCCC(=O)N[C@@H](CCC(N)=O)C(=O)N[C@H](C(=O)N[C@@H](C)C(=O)N[C@H](C(=O)O)C(C)C)[C@@H](C)O) [palmitoyl tetrapeptide Gln-Thr-Ala-Val with free C-terminal OH, according to the invention] | +59% | 69% | 31% | the only sequence to significantly enhance | overall enhancement of protein synthesis | +84% | 230% | +87% | 27% | 32% | +33% | 32% | 
2 | Pal-GYIL-OH | −4% |  |  |  |  |  |  | −23% |  |  | +2% |  | +3%
3 | Pal-LSPD-OH |  | 39% | 5% |  |  |  | 5% |  | 40% | 5% |  | 27% | 
4 | Pal-GPSG-OH |  | 85% | 20% |  |  |  | 51% |  | 25% | 2% |  | 28% | 
5 | Pal-LSPG-OH |  | 10% | <1% |  |  |  | 94% |  | 22% | 24% |  | 6.60%^ | 

Source: US12594227B2, “Tetrapeptide and compositions comprising tetrapeptides” (THE BOOTS COMPANY PLC, priority 2020, dated 2026)
